Assay results reported in US20230183237A1, “COMPETITIVE AND NONCOMPETITIVE INHIBITORS OF THE MUSCARINIC ACETYLCHOLINE RECEPTOR M5” (Vanderbilt University, priority 2020, published 2023).

target: T1, hM5 (Homo sapiens, UniProt P08912); assay: Calcium mobilization concentration-response (IC50 vs EC80 acetylcholine), CHO hM5; type: cell-based; details: CELL LINE hM5; calcium mobilization, EC80 acetylcholine addition; read-out: IC50
T1 construct: expressed in transfected cells
T1 sequence (P08912 1-532): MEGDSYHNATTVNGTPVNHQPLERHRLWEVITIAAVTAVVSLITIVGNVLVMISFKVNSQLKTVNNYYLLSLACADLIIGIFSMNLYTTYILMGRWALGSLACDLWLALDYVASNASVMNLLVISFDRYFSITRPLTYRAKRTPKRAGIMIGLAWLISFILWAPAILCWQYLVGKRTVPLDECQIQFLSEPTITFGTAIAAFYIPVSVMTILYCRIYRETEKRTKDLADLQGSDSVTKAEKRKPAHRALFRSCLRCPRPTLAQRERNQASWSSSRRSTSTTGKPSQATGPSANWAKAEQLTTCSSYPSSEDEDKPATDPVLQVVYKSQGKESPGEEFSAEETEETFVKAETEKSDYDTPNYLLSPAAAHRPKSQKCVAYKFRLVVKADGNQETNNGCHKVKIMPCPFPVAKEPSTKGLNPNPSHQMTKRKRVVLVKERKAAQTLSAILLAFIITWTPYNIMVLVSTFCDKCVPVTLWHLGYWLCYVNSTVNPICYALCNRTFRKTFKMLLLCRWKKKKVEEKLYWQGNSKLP
How it was run: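 CHO cells stably expressing hM5, dye-loaded, in HBSS/20 mM HEPES/2.5 mM probenecid, pH 7.4. Compounds were pre-incubated 140 s before an EC80 acetylcholine challenge, with calcium flux read kinetically.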

SMILES	IC50 [nM]
Cc1cc2ncnn2cc1C1CCN(S(=O)(=O)c2c3ccccc3nn2C)CC1 [Compound 150, 7-methyl-6-(1-((2-methyl-2H-indazol-3-yl)sulfonyl)piperidin-4-yl)-[1,2,4]triazolo[1,5-a]pyridine]	325
Cc1cc2ncnn2cc1C1CCN(S(=O)(=O)c2cnn(C(F)F)c2C)CC1 [Compound 151, 6-(1-((1-(difluoromethyl)-5-methyl-1H-pyrazol-4-yl)sulfonyl)piperidin-4-yl)-7-methyl-[1,2,4]triazolo[1,5-a]pyridine]	62
Cc1nc2cc(C)c(C3CCN(S(=O)(=O)c4ccc5c(c4)CCO5)CC3)cn2n1 [Compound 76, 6-(1-((2,3-dihydrobenzofuran-5-yl)sulfonyl)piperidin-4-yl)-2,7-dimethyl-[1,2,4]triazolo[1,5-a]pyridine]	> 10000
O=S(=O)(c1cnc2n1CCC2)N1CCC(c2cn3ncnc3cc2F)CC1 [Compound 233, 6-(1-((6,7-dihydro-5H-pyrrolo[1,2-a]imidazol-3-yl)sulfonyl)piperidin-4-yl)-7-fluoro-[1,2,4]triazolo[1,5-a]pyridine]	> 10000
Cc1cc2ncnn2cc1C1=CCN(S(=O)(=O)c2cc3c(cc2C)OCC3C)CC1 (stereo not shown) [Compound 84, 6-(1-((3,6-dimethyl-2,3-dihydrobenzofuran-5-yl)sulfonyl)-1,2,3,6-tetrahydropyridin-4-yl)-7-methyl-[1,2,4]triazolo[1,5-a]pyridine]	185
O=S(=O)(c1ccc2ncsc2c1)N1CCC(c2cn3ccccc3n2)CC1 [Compound 9, 6-((4-(imidazo[1,2-a]pyridin-2-yl)piperidin-1-yl)sulfonyl)benzo[d]thiazole]	> 10000
Cc1c(S(=O)(=O)N2CCC(c3cn4ncnc4cc3OC(F)(F)F)CC2)cnn1C [Compound 378, 6-(1-((1,5-dimethyl-1H-pyrazol-4-yl)sulfonyl)piperidin-4-yl)-7-(trifluoromethoxyl)-[1,2,4]triazolo[1,5-a]pyridine]	8150
Cc1sc(C#N)nc1C1=CCN(S(=O)(=O)c2ccc3c(c2)CCO3)CC1 [Compound 205, 4-(1-((2,3-dihydrobenzofuran-5-yl)sulfonyl)-1,2,3,6-tetrahydropyridin-4-yl)-5-methylthiazole-2-carbonitrile]	> 10000
[2H]C([2H])([2H])n1nc(Cl)c(S(=O)(=O)N2CCC(c3cn4ncnc4cc3F)CC2)c1C [Compound 257, 6-(1-((3-chloro-5-methyl-1-(methyl-d3)-1H-pyrazol-4-yl)sulfonyl)piperidin-4-yl)-7-fluoro-[1,2,4]triazolo[1,5-a]pyridine]	89
Cc1ccncc1C1CCN(S(=O)(=O)c2cnn3c2CCC3)CC1 [Compound 388, 3-((4-(4-methylpyridin-3-yl)piperidin-1-yl)sulfonyl)-5,6-dihydro-4H-pyrrolo[1,2-b]pyrazole]	822
Cn1ncc(S(=O)(=O)N2CCC(c3cn4ncnc4cc3F)CC2)c1C(F)F [Compound 231, 6-(1-((5-(difluoromethyl)-1-methyl-1H-pyrazol-4-yl)sulfonyl)piperidin-4-yl)-7-fluoro-[1,2,4]triazolo[1,5-a]pyridine]	176
O=S(=O)(c1cnc2n1CCCC2)N1CCC(c2cn3ncnc3cc2C(F)(F)F)CC1 [Compound 339, 6-(1-((5,6,7.8-tetrahydroimidazo[1,2-a]pyridin-3-yl)sulfonyl)piperidin-4-yl)-7-(trifluoromethyl)-[1,2,4]triazolo[1,5-a]pyridine]	67
Cc1c(C2CCN(S(=O)(=O)c3cnc4n3CCCC4)CC2)cn2ncnc2c1F [Compound 349, 8-fluoro-7-methyl-6-(1-((5,6,7,8-tetrahydroimidazo[1,2-a]pyridin-3-yl)sulfonyl)piperidin-4-yl)-[1,2,4]triazolo[1,5-a]pyridine]	17
COc1ccc(S(=O)(=O)N2CCC(c3nn4ccnc4cc3C)CC2)c(C)c1 [Compound 41, 6-(1-((4-methoxy-2-methylphenyl)sulfonyl)piperidin-4-yl)-7-methylimidazo[1,2-b]pyridazine]	> 10000
Cc1nc2[nH]cnc2cc1C1CCN(S(=O)(=O)c2cnn3c2CCC3)CC1 [Compound 289, 6-(1-((5,6-dihydro-4H-pyrrolo[1,2-b]pyrazol-3-yl)sulfonyl)piperidin-4-yl)-5-methyl-3H-imidazo[4,5-b]pyridine]	> 10000
O=S(=O)(c1cc2c(cc1F)OCC2)N1CCC(c2cn3ncnc3cc2F)CC1 [Compound 106, 7-fluoro-6-(1-((6-fluoro-2,3-dihydrobenzofuran-5-yl)sulfonyl)piperidin-4-yl)-[1,2,4]triazolo[1,5-a]pyridine]	> 10000
Cc1cc2ncnn2cc1C1=CCN(S(=O)(=O)c2cc3c(cc2F)OCC3)CC1 [Compound 46, 6-(1-((6-fluoro-2,3-dihydrobenzofuran-5-yl)sulfonyl)-1,2,3,6-tetrahydropyridin-4-yl)-7-methyl-[1,2,4]triazolo[1,5-a]pyridine]	2700
Cn1ncc(S(=O)(=O)N2CC=C(c3cc4c(cc3Cl)OCO4)CC2)c1Cl [Compound 351, 1-((5-chloro-1-methyl-1H-pyrazol-4-yl)sulfonyl)-4-(6-chlorobenzo[d][1,3]dioxol-5-yl)-1,2,3,6-tetrahydropyridine]	142

same assay, conditions: CELL LINE hM5; vs EC80 acetylcholine; read-out: IC50

SMILES	IC50 [nM]
Cc1cc2ncnn2cc1C1(F)CCN(S(=O)(=O)c2cnn3c2CCC3)CC1 [Compound 420, 6-(1-((5,6-dihydro-4H-pyrrolo[1,2-b]pyrazol-3-yl)sulfonyl)-4-fluoropiperidin-4-yl)-7-methyl-[1,2,4]triazolo[1,5-a]pyridine]	39
Cc1cc2ccnn2cc1C1CCN(S(=O)(=O)c2cnn(C)c2C#N)CC1 [Compound 481, 1-methyl-4-((4-(5-methylpyrazolo[1,5-a]pyridin-6-yl)piperidin-1-yl)sulfonyl)-1-pyrazole-5-carbonitrile]	303
[2H]C1([2H])CC(c2cn3ncnc3cc2F)CC([2H])([2H])N1S(=O)(=O)c1cc(C)ns1 [Compound 528, 5-((4-(7-fluoro-[1,2,4]triazolo[1,5-a]pyridin-6-yl)piperidin-1-yl-2,2,6,6-d4)sulfonyl)-3-methylisothiazole]	595
Cc1cc2ncnn2cc1C1CCN(S(=O)(=O)c2cnc3sccn23)CC1 [Compound 526, 5-((4-(7-methyl-[1,2,4]triazolo[1,5-a]pyridin-6-yl)piperidin-1-yl)sulfonyl)imidazo[2,1-b]thiazole]	14
[2H]C1([2H])CC(c2cn3ncnc3cc2C)CC([2H])([2H])N1S(=O)(=O)c1cnn(C)c1C#N [Compound 547, 1-methyl-4-((4-(7-methyl-[1,2,4]triazolo[1,5-a]pyridin-6-yl)piperidin-1-yl-2,2,6,6-d4)sulfonyl)-1H-pyrazole-5-carbonitrile]	10
Cc1nnc(S(=O)(=O)N2CCC(c3cn4ncnc4cc3C)CC2)s1 [Compound 539, 2-methyl-5-((4-(7-methyl-[1,2,4]triazolo[1,5-a]pyridin-6-yl)piperidin-1-yl)sulfonyl)-1,3,4-thiadiazole]	31
Cn1ncc(S(=O)(=O)N2CCC(c3cn4ncnc4cc3C(F)(F)F)CC2)c1C#N [Compound 409, 1-methyl-4-((4-(7-(trifluoromethyl)-[1,2,4]triazolo[1,5-a]pyridin-6-yl)piperidin-1-yl)sulfonyl)-1H-pyrazole-5-carbonitrile]	59
[2H]C1([2H])CC(c2cn3ncnc3c(F)c2C)CC([2H])([2H])N1S(=O)(=O)c1cnc2sccn12 [Compound 537, 5-((4-(8-fluoro-7-methyl-[1,2,4]triazolo[1,5-a]pyridin-6-yl)piperidin-1-yl-2,2,6,6-d4)sulfonyl)imidazo[2,1-b]thiazole]	11
Cc1cc2ncnn2cc1C1(F)CCN(S(=O)(=O)c2cn(C)nn2)CC1 [Compound 588, 6-(4-fluoro-1-((1-methyl-1H-1,2,3-triazol-4-yl)sulfonyl)piperidin-4-yl)-7-methyl-[1,2,4]triazolo[1,5-a]pyridine]	2110
Cc1cc(N(C)C)ncc1C1CCN(S(=O)(=O)c2cnn(C)c2Cl)CC1 [Compound 551, 5-(1-((5-chloro-1-methyl-1H-pyrazol-4-yl)sulfonyl)piperidin-4-yl)-N,N,4-trimethylpyridin-2-amine]	7
[2H]C([2H])([2H])Oc1c(S(=O)(=O)N2CCC(c3cn4ncnc4cc3C(F)(F)F)CC2)cnn1C [Compound 615, 6-(1-((5-(methoxy-d3)-1-methyl-1H-pyrazol-4-yl)sulfonyl)piperidin-4-yl)-7-(trifluoromethyl)-[1,2,4]triazoto[1,5-a]pyridine]	114
Cn1ncc(S(=O)(=O)N2CCC(c3cn4ncnc4cc3F)CC2)c1C#N [Compound 402, 4-((4-(7-fluoro-[1,2,4]triazolo[1,5-a]pyridin-6-yl)piperidin-1-yl)sulfonyl)-1-methyl-1H-pyrazole-5-carbonitrile]	85
COCC(=O)NCc1c(S(=O)(=O)N2CCC(c3cn4ncnc4cc3F)CC2)cnn1C [Compound 553, N-((4-((4-(7-fluoro-[1,2,4]triazoto[1,5-a]pyridin-6-yl)piperidin-1-yl)sulfonyl)-1-methyl-1H-pyrazol-5-yl)methyl)-2-methoxyacetamide]	> 10000
